Laboratory results taken from US6093732A, “4-hydroxyquinoline-3-carboxamides and hydrazides as antiviral agents” (Pharmacia & Upjohn Company, priority 1998, dated 2000).
pIC50: −log10 of the molar value. Structures can show the parent of a compound that is named as a salt.

target: T1, HCMV polymerase (Human cytomegalovirus, UniProt P08546); assay: HCMV polymerase scintillation proximity assay (SPA), modified version; assay type: biochemical; conditions: CMV polymerase; Table 1; modified assay with 4.5 mM DTT, compounds in 100% DMSO; read-out: Antiviral Selective Polymerase IC50 Values, CMV
T1 construct: made in house; host or cells: recombinant baculovirus-infected SF-9 cells
Experimental: The HCMV polymerase assay is performed using a scintillation proximity assay (SPA) as described in several references, such as N. D. Cook, et al., Pharmaceutical Manufacturing International, pages 49-53 (1992); K. Takeuchi, Laboratory Practice, September issue (1992); U.S. Pat. No. 4,568,649 (1986); which are incorporated by reference herein. Reactions are performed in 96-well plates. The assay is conducted in 100 μl volume with 5.4 mM HEPES (pH 7.5), 11.7 mM KCl, 4.5 mM MgCl2, 0.36 mg/ml BSA, and 90 nM ^3 H-dTTP. Assays are run with and without CHAPS, (3-[(3-Cholamidopropyl)-dimethylammonio]-1-propane-sulfonate) at a final concentration of 2 mM. HCMV polymerase is diluted in enzyme dilution buffer containing 50% glycerol, 250 mM NaCl, 10 mM HEPES (pH 7.5), 100 μg/ml BSA, and 0.01% sodium azide. The HCMV polymerase, which is expressed in recombinant baculovirus-infected SF-9 cells and purified according to literature procedures, is added at 10% (or 10 μl) of the final reaction volume, i.e., 100 μl. Compounds are diluted in 50% DMSO and 10 μl are added to each well. Control wells contain an equivalent concentration of DMSO. Unless noted otherwise, reactions are initiated via the addition of 6 nM biotinylated poly(dA)-oligo(dT) template/primer to reaction mixtures containing the enzyme, substrate, and compounds of interest. Plates are incubated in a 25° C. or 37° C. H2 O bath and terminated via the addition of 40 μl/reaction of 0.5 M EDTA (pH 8) per well. Reactions are terminated within the time-frame during which substrate incorporation is linear and varied depending upon the enzyme and conditions used, i.e., 30 min. for HCMV polymerase. Ten μl of streptavidin-SPA beads (20 mg/ml in PBS/10% glycerol) are added following termination of the reaction. Plates are incubated 10 min. at 37° C., then equilibrated to room temperature, and counted on a Packard Topcount. Linear regressions are performed and IC50 's are calculated using computer software.
A modified version of the above HCMV polymerase assay is performed as described above, but with the following changes: Compounds are diluted in 100% DMSO until final dilution into assay buffer. In the previous assay, compounds are diluted in 50% DMSO. 4.5 mM dithiotherotol (DTT) is added to the polymerase buffer. […] Other viral polymerase assays are performed using procedures similar to those described above.

T1 sequence (P08546 whole entry): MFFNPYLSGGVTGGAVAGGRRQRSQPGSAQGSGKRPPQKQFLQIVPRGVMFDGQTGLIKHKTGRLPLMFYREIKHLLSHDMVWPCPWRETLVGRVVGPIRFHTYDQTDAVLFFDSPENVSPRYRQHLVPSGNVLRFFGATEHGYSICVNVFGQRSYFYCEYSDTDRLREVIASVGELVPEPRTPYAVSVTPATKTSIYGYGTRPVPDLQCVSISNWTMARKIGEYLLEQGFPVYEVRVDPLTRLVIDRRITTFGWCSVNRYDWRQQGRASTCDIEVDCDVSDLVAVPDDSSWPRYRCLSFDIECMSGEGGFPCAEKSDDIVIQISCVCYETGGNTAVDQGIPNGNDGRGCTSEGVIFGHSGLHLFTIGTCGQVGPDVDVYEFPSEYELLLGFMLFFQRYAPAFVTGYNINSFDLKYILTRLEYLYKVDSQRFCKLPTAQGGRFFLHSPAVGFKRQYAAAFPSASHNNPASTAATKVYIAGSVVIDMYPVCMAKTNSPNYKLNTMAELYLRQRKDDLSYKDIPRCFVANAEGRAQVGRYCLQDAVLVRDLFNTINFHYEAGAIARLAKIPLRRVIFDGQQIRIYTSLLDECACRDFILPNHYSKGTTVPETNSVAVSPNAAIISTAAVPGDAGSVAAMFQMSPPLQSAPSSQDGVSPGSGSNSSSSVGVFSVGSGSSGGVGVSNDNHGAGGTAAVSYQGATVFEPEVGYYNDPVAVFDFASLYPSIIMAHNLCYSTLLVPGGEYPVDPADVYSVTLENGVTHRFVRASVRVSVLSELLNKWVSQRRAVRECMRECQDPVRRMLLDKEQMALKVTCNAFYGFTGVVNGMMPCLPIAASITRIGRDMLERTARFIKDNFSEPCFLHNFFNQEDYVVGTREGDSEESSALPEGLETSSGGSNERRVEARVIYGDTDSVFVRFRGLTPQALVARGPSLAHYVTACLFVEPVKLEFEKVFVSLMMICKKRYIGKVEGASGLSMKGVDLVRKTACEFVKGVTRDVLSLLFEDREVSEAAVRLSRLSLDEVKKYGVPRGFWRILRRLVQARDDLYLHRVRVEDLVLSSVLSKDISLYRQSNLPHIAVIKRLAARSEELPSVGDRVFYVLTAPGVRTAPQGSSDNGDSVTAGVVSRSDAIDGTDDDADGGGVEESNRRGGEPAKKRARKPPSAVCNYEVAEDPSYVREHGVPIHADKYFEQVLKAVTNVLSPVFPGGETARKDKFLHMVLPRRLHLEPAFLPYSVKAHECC

| SMILES | pIC50 |
| --- | --- |
| O=C(NCc1ccc(Cl)cc1)c1cnc2ccc(S(=O)(=O)Nc3ccnn3-c3ccccc3)cc2c1O [Example 47, N-[(4-Chlorophenyl)methyl]-4-hydroxy-6-[[(1-phenyl-1H-pyrazol-5-yl)amino]sulfonyl]-3-quinolinecarboxamide] | 4.40 |
| O=C(NCc1ccc(Cl)cc1)c1cnc2c([N+](=O)[O-])cccc2c1O [Example 49, N-[(4-Chlorophenyl)methyl]-4-hydroxy-8-nitro-3-quinoline-carboxamide] | 5.43 |
| COc1ccc2ncc(C(=O)NCc3ccc(Cl)cc3)c(O)c2c1 [Example 23, N-[(4-Chlorophenyl)methyl]-4-hydroxy-6-methoxy-3-quinoline-carboxamide] | 5.47 |
| O=C(NCc1ccc(Cl)cc1)c1cnc2c(F)cc(S(=O)(=O)NCc3cccs3)cc2c1O [Example 209, N-(4-chlorobenzyl)-8-fluoro-4-hydroxy-6-{[(2-thienylmethyl)amino]sulfonyl}-3-quinolinecarboxamide] | 5.07 |
| CC(C)(C)OC(=O)NCCCCC(NC(=O)OC(C)(C)C)C(=O)OCCCc1cc(F)c2ncc(C(=O)NCc3ccc(Cl)cc3)c(O)c2c1 (stereo not shown) [Example 155, 3-(3{[(4-Chlorobenzyl)amino]carbonyl}-8-fluoro-4-hydroxy-6-quinolinyl)propyl 2,6-bis[(tert-butoxycarbonyl)amino]hexanoate] | ≤ 4.30 |
| O=C(NCc1ccc(Cl)cc1)c1cnc2ccc(COCCO)cc2c1O [Example 163, N-(4-Chlorobenzyl)-4-hydroxy-6-[(2-hydroxyethoxy)methyl]-3-quinolinecarboxamide] | 6.23 |
| CC(O)CNS(=O)(=O)c1cc(F)c2ncc(C(=O)NCc3ccc(Cl)cc3)c(O)c2c1 (stereo not shown) [Example 223, N-(4-chlorobenzyl)-8-fluoro-4-hydroxy-6-{[(2-hydroxypropyl)amino]sulfonyl}-3-quinolinecarboxamide] | 4.84 |
| O=C(NCc1ccc(Cl)cc1)c1cnc2cccc(O)c2c1O [Example 42, N-[(4-Chlorophenyl)methyl]-4,5-dihydroxy-3-quinolinecarboxamide] | 4.72 |
| COCCOCSc1cc(F)c2ncc(C(=O)NCc3ccc(Cl)cc3)c(O)c2c1 [Example 173, N-(4-Chlorobenzyl)-8-fluoro-4-hydroxy-6-{[(2-methoxyethoxy)-methyl]sulfanyl}-3-quinolinecarboxamide] | 4.89 |
| CC(C)C(N)C(=O)OCCCc1cc(F)c2ncc(C(=O)NCc3ccc(Cl)cc3)c(O)c2c1 (stereo not shown) [Example 149, 3-(3-{[(4-Chlorobenzyl)amino]carbonyl}-8-fluoro-4-hydroxy-6-quinolinyl)propyl 2-amino-3-methylbutanoate] | 5.20 |
| CC(=O)NCCNS(=O)(=O)c1cc(F)c2ncc(C(=O)NCc3ccc(Cl)cc3)c(O)c2c1 [Example 227, 6-({[2-(acetylamino)ethyl]amino}sulfonyl)-N-(4-chlorobenzyl)-8-fluoro-4-hydroxy-3-quinolinecarboxamide] | 4.57 |
| CN(CCCc1cc(F)c2ncc(C(=O)NCc3ccc(Cl)cc3)c(O)c2c1)Cc1ccccc1 [Example 108, 6-{3-[Benzyl(methyl)amino]propyl}-N-(4-chlorobenzyl)-8-fluoro-4-hydroxy-3-quinolinecarboxamide] | 5.19 |
| O=C(NCc1ccc(Cl)cc1)c1cnc2c(F)cc(SCCO)cc2c1O [Example 171] | 5.72 |
| O=C(NCc1ccc(Cl)cc1)c1cnc2ccc(CCCOP(=O)(O)O)cc2c1O [Example 269, 3-(3-{[(4-Chlorobenzyl)amino]carbonyl-4-hydroxy-6-quinolinyl)propyldihydrogen phosphate] | 5.01 |
| N#CCCCCCc1cc(F)c2ncc(C(=O)NCc3ccc(Cl)cc3)c(O)c2c1 [Example 105, N-(4-Chlorobenzyl)-6-(5-cyanopentyl)-8-fluoro-4-hydroxy-3-quinolinecarboxamide] | 4.98 |
| O=C(NCc1ccc(Cl)cc1)c1cnc2c(F)cc(S(=O)(=O)Nc3ccccn3)cc2c1O [Example 200, N-(4-Chlorobenzyl)-8-fluoro-4-hydroxy-6-[(2-pyridinylamino)-sulfonyl]-3-quinolinecarboxamide] | 4.41 |
| CC(C)(C)CNS(=O)(=O)c1cc(F)c2ncc(C(=O)NCc3ccc(Cl)cc3)c(O)c2c1 [Example 222, N-(4-chlorobenzyl)-8-fluoro-4-hydroxy-6-[(neopentylamino)sulfonyl]-3-quinolinecarboxamide] | 4.94 |
| O=C(NCc1ccc(Cl)cc1)c1cnc2c(F)cc(S(=O)(=O)NCC(c3ccccc3)c3ccccc3)cc2c1O [Example 225, N-(4-chlorobenzyl)-6-{[(2,2-diphenylethyl)amino]sulfonyl}-8-fluoro-4-hydroxy-3-quinolinecarboxamide] | 5.07 |
| O=COCC#Cc1cc(F)c2ncc(C(=O)NCc3ccc(Cl)cc3)c(O)c2c1 [Example 131, 3-(3-{[(4-Chlorobenzyl)amino]carbonyl}-8-fluoro-4-hydroxy-6-quinolinyl)-2-propynyl formate] | 5.74 |
| CN1CCCC1CCNS(=O)(=O)c1cc(F)c2ncc(C(=O)NCc3ccc(Cl)cc3)c(O)c2c1 (stereo not shown) [Example 202, N-(4-chlorobenzyl)-8-fluoro-4-hydroxy-6-({[2-(1-methyl-2-pyrrolidinyl)ethyl]amino}sulfonyl)-3-quinolinecarboxamide] | ≤ 4.30 |
| N#Cc1cccc2c(O)c(C(=O)NCc3ccc(Cl)cc3)cnc12 [Example 48, N-[(4-Chlorophenyl)methyl]-8-cyano-4-hydroxy-3-quinoline-carboxamide] | 5.19 |
| CC(C)(C)OP(=O)(OCCCc1cc(F)c2ncc(C(=O)NCc3ccc(Cl)cc3)c(O)c2c1)OC(C)(C)C [Example 267, Di(tert-butyl) 3-(3-{[(4-chlorobenzyl)amino]carbonyl}-8-fluoro-4-hydroxy-6-quinolinyl)propyl phosphate] | 4.28 |
| O=C(NCc1ccc(Cl)cc1)c1cnc2c(F)cc(S(=O)(=O)NCCc3c[nH]cn3)cc2c1O [Example 207, N-(4-chlorobenzyl)-8-fluoro-4-hydroxy-6-({[2-(1H-imidazol-4-yl)ethyl]amino}sulfonyl)-3-quinolinecarboxamide] | 4.84 |
| O=C(NCCO)c1cc(F)c2ncc(C(=O)NCc3ccc(Cl)cc3)c(O)c2c1 [Example 181, N^3-(4-Chlorobenzyl)-8-fluoro-4-hydroxy-N^6-(2-hydroxyethyl)-3,6-quinolinedicarboxamide] | 4.41 |
| Cc1ccccc1-c1cc(F)c2ncc(C(=O)NCc3ccc(Cl)cc3)c(O)c2c1 [Example 77, N-((4-Chlorophenyl)methyl)-8-fluoro-4-hydroxy-6-(2-methyl-phenyl)-3-quinolinecarboxamide] | 5.40 |
| O=C(NCc1ccc(Cl)cc1)c1cnc2cc(Cl)ccc2c1O [Example 56, 7-Chloro-N-((4-chlorophenyl)methyl)-4-hydroxy-3-quinoline-carboxamide] | 5.51 |
| O=C(NCc1ccc(Cl)cc1)c1cnc2c(OC(F)(F)F)cc(C#CCO)cc2c1O [Example 122, N-(4-Chlorobenzyl)-4-hydroxy-6-(3-hydroxy-1-propynyl)-8-(trifluoromethoxy)-3-quinolinecarboxamide] | 5.74 |
| CC(O)C#Cc1cc(F)c2ncc(C(=O)NCc3ccc(Cl)cc3)c(O)c2c1 (stereo not shown) [Example 96, N-(4-Chlorobenzyl)-8-fluoro-4-hydroxy-6-(3-hydroxy-1-butynyl)-3-quinolinecarboxamide] | 5.35 |
